# Reference: article PMC3876893 (Journal of the American Chemical Society, 2013)
# Target: CalE8 (Micromonospora echinospora, UniProt Q8KNG1)
# Test: in vitro reconstitution, HPLC/LCMS of base-released polyketides
# Assay type: biochemical
# Settings: NADPH co-substrate (0.5 mM each), pH 7.0, 24 °C, no CalE7 thioesterase
# Sequence of CalE8 (Q8KNG1 1-1919): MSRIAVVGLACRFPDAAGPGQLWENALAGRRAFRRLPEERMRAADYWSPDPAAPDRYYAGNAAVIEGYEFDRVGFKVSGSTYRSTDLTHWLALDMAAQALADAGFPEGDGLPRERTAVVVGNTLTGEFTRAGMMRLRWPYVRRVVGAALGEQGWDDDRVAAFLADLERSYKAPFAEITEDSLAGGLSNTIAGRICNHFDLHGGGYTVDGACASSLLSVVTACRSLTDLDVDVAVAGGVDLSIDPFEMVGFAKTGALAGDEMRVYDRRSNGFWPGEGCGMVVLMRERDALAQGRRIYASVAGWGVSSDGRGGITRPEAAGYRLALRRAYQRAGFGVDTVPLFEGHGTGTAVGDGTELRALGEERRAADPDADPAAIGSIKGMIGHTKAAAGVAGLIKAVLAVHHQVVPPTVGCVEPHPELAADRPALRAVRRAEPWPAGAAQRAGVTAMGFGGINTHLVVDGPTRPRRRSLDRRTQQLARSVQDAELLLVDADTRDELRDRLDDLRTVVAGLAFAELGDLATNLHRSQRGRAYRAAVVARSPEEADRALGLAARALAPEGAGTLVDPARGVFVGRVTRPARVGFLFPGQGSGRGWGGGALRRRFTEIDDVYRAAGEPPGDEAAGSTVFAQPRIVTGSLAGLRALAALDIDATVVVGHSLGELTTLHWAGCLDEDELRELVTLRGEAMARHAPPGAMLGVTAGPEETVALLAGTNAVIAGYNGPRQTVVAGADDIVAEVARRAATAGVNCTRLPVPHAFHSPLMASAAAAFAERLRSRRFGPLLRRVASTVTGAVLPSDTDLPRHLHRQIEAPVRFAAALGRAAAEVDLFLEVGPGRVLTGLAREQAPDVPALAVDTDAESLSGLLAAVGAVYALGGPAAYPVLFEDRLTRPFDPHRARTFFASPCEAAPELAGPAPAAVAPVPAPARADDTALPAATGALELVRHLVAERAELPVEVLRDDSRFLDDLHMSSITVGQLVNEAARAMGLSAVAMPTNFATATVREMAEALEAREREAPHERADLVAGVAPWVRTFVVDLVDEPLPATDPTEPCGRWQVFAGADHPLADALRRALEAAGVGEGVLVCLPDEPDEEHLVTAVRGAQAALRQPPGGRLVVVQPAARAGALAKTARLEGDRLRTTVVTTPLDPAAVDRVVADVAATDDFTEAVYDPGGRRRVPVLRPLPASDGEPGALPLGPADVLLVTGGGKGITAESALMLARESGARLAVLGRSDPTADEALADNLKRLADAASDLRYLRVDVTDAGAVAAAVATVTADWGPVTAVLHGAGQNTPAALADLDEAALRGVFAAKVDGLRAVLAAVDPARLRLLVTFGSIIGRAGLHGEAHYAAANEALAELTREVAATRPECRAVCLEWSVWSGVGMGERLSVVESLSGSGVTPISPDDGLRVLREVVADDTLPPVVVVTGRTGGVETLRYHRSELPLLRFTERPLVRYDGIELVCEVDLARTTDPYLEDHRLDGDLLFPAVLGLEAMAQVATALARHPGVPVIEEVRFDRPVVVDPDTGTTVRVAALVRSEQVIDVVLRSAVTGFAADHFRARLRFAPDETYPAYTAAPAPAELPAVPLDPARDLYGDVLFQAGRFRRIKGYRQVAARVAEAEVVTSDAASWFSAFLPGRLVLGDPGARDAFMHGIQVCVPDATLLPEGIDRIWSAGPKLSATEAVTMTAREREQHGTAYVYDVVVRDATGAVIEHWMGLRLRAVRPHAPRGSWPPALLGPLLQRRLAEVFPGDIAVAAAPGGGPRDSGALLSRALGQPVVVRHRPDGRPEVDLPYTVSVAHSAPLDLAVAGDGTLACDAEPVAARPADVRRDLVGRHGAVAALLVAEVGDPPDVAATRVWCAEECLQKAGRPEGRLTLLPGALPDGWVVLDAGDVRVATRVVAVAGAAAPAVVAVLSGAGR
smiles,measurement,value
CC(=O)NCCSC(=O)CC(=O)O [malonyl-SNAc],"in vitro reconstitution, HPLC/LCMS of base-released polyketides",polyketide profiles of CalE8 are consistent when MalCoA is replaced by malonyl-SNAc (MalSNAc)
